{"source": "paper PMC12348470", "about": "“Amino Acid Substitutions in Bacteriocin Lactolisterin BU Reveal Functional Domains Involved in Biological Activity Against Staphylococcus aureus” (Molecules, 2025)", "key": {"S. aureus ATCC 25923 [1]": {"system": "S. aureus ATCC 25923", "experiment": "Spot-on-the-lawn antimicrobial screening", "format": "cell-based, Staphylococcus aureus", "details": "5 µL spots at 1000, 500, 250, 125 and 62.5 µg/mL on LB soft agar lawn; overnight, 37 °C", "description": "The antimicrobial activity screening assay of twelve chemically synthesized peptides was evaluated using a spot-on-the-lawn assay against S. aureus ATCC 25923.\nS. aureus ATCC 25923 was grown overnight in LB broth, adjusted to 0.5 McFarland (~1 × 10^8 CFU/mL), and mixed 1:100 into molten soft agar (0.7% agar in LB). Five milliliters of this suspension was overlaid onto LB agar plates and allowed to solidify.\nPeptide stock solutions (1 mg/mL) were serially diluted in sterile water, and 5 µL of each dilution was carefully spotted onto the surface of the inoculated agar. The plates were dried under a laminar flow hood for 15–20 min and incubated overnight at 37 °C. Zones were observed, and their size and clarity were compared."}, "S. aureus ATCC 25923 [2]": {"system": "S. aureus ATCC 25923", "format": "cell-based, Staphylococcus aureus", "description": "MIC values were determined by broth microdilution following the guidelines of the European Committee on Antimicrobial Susceptibility Testing (EUCAST, Version 5.0), with a modification in the choice of medium. Instead of cation-adjusted Mueller–Hinton Broth (CA-MHB), Luria–Bertani (LB) broth was used for all MIC assays involving S. aureus ATCC 25923 to ensure consistency with conditions used in complementary experiments. Two-fold serial dilutions of peptides (ranging from 1.56 to 50 µg/mL) were prepared in sterile LB, inoculated with ~5 × 10^5 CFU/mL bacterial suspension, and incubated at 37 °C for 18–20 h. MIC was defined as the lowest peptide concentration with no visible bacterial growth. All assays were performed in triplicate."}, "S. aureus ATCC 25923 [3]": {"system": "S. aureus ATCC 25923", "format": "cell-based, Staphylococcus aureus", "remark": "listed apart in the source"}, "sheep erythrocytes": {"system": "sheep erythrocytes", "experiment": "Hemolysis assay", "format": "cell-based", "description": "Hemolytic activity of peptides was assessed as described by Dong et al., with some modifications. Fresh defibrinated sheep blood was obtained from the Institute of Virology, Vaccines and Sera “Torlak” (Belgrade, Serbia). Erythrocytes were washed three times with sterile Tris-buffered saline (TBS, 10 mM TRIS-HCl, pH 7.4, 150 mM NaCl) by centrifugation at 800× g for 5 min and resuspended to a final 2% (v/v) erythrocyte suspension in TBS.\nPeptide solutions (0.02 M HCl) were diluted in Tris-buffered saline (TBS, 10 mM TRIS-HCl, pH 7.4, 150 mM NaCl) to final concentrations ranging from 6.25 to 50 µg/mL. In a 96-well flat-bottom plate, 100 µL of peptide solution was mixed with 100 µL of erythrocyte suspension and incubated at 37 °C for 1 h.\nAfter incubation, the plates were centrifuged at 1000× g for 5 min, and 100 µL of the supernatant was transferred to a flat-bottom 96-well plate. Absorbance was measured at 540 nm using a microplate reader (model BioTek Epoch Microplate Spectrophotometer; Agilent Technologies, Winooski, VT, USA).\nHemolysis (%) was calculated relative to a negative control (TBS; 0% lysis) and a positive control (0.1% SDS; 100% lysis) using the formula: Hemolysis (%)=Asample−ATBS/ASDS−ATBS×100\nThe assay was performed in triplicate."}, "Danio rerio embryos": {"system": "Danio rerio embryos", "experiment": "Zebrafish embryo toxicity (OECD TG 236)", "format": "in vivo", "details": "120 hpf", "description": "Embryos were exposed to six different increasing concentrations of each peptide for 5 consecutive days (120 hfp) and examined for survival and signs of toxicity, following toxicological endpoints (Table S1).\nThe toxicity of synthetic peptide variants was assessed in vivo using Danio rerio embryos, in accordance with OECD Test Guideline 236 (Fish Embryo Acute Toxicity Test) and the European Directive 2010/63/EU on the protection of animals used for scientific purposes, according to Aleksic et al.. All procedures were conducted at the Institute of Molecular Genetics and Genetic Engineering, University of Belgrade.\nWild-type adult zebrafish were maintained under standard laboratory conditions (28 °C; 14:10 h light–dark cycle). Embryos were obtained via pairwise mating and collected within 1 h post-fertilization (hpf). At 5 hpf, the embryos were randomly distributed into 24-well plates (10 embryos/well, 1 mL embryo medium per well) containing embryo water (0.2 mg/mL Instant Ocean® salts in distilled water). Peptides were tested at five concentrations (e.g., 1.56–25 µg/mL) in triplicate. Peptide solvent was used as a negative control. The plates were incubated at 28 °C without media replacement.\nEmbryonic development was monitored using an inverted microscope (Zeiss Stemi 508; Carl Zeiss Microscopy GmbH, Jena, Germany). Lethal endpoints and sublethal malformations were scored according to OECD guidelines (Table S1). At 120 hpf, the embryos were anesthetized using 0.1% tricaine, photographed, and euthanized via freezing at −20 °C for 24 h.\nLC50 values were estimated using the log–logistic binomial model (LL.2) from the drc package in R.\nDose–response curves and LC50 values were estimated using the log–logistic binomial model (LL.2) from the drc package in R [79] (version 2025.05.0). Mortality data were modeled as proportions of dead individuals relative to total individuals tested, and 95% confidence intervals for LC50 were calculated using the delta method."}, "[4]": {"parameters": "method as in PMID 28842543", "details": "cited from earlier work"}, "gut peptidases": {"system": "gut peptidases", "parameters": "method as in PMID 28842543", "details": "cited from earlier work"}}, "note": "Ends that are not written are not given here.", "data": [{"sequence": "MWGRILGTVAKYGAKAVSWAWQHKWELINMGDLAFRYIQRIWG [Peptide P14A]", "values": [{"measurement": "zones of inhibition, spot-on-the-lawn assay", "setting": "S. aureus ATCC 25923 [1]", "value": "only faint inhibition zones at the highest concentrations (1000 and 500 µg/mL)"}, {"measurement": "MIC", "setting": "S. aureus ATCC 25923 [2]", "value": 25, "unit": "mg/L"}]}, {"sequence": "MWGRILGTVAKYGPKAVSWAWQRKWELINMGDLAFRYIQRIWG [Peptide H23R]", "values": [{"measurement": "zones of inhibition, spot-on-the-lawn assay", "setting": "S. aureus ATCC 25923 [1]", "value": "comparable to the wild-type LBU peptide"}, {"measurement": "MIC", "setting": "S. aureus ATCC 25923 [2]", "value": 12.5, "unit": "mg/L"}, {"measurement": "MBC", "setting": "S. aureus ATCC 25923 [3]", "value": 50, "unit": "mg/L"}]}, {"sequence": "MWARILGTVAKYGPKAVSWAWQAKWELINMGDLAFRYIQRIWG [G3A/H23A]", "values": [{"measurement": "zones of inhibition, spot-on-the-lawn assay", "setting": "S. aureus ATCC 25923 [1]", "value": "complete loss of antimicrobial activity"}, {"measurement": "MIC", "setting": "S. aureus ATCC 25923 [2]", "value": ">50", "unit": "mg/L"}, {"measurement": "MBC", "setting": "S. aureus ATCC 25923 [3]", "value": ">50", "unit": "mg/L"}]}, {"sequence": "MEGRILGTVAKYGPKAVSWAWQHKWELINMGDLAFRYIQRIWG [Peptide W2E]", "values": [{"measurement": "zones of inhibition, spot-on-the-lawn assay", "setting": "S. aureus ATCC 25923 [1]", "value": "decreased antimicrobial potency"}, {"measurement": "MIC", "setting": "S. aureus ATCC 25923 [2]", "value": ">50", "unit": "mg/L"}, {"measurement": "MBC", "setting": "S. aureus ATCC 25923 [3]", "value": ">50", "unit": "mg/L"}]}, {"sequence": "MWGRILGTVAKYGPKAVSWAWQHKWELINMGDLAFRYIQRIWG [LBU]", "values": [{"measurement": "zones of inhibition, spot-on-the-lawn assay", "setting": "S. aureus ATCC 25923 [1]", "value": "clear zones of inhibition across the tested concentrations, except 62.5 µg/mL"}, {"measurement": "MIC", "setting": "S. aureus ATCC 25923 [2]", "value": 12.5, "unit": "mg/L"}, {"measurement": "MBC", "setting": "S. aureus ATCC 25923 [3]", "value": 25, "unit": "mg/L"}, {"measurement": "hemolytic activity, in words", "setting": "sheep erythrocytes; 6.25 to 50 µg/mL, sheep erythrocytes, 37 °C, 1 h", "value": "negligible hemolytic activity across all concentrations"}, {"measurement": "Hemolytic activity (%) at 50 µg/mL", "setting": "sheep erythrocytes; pH 7.4", "value": 2.98, "unit": "%"}, {"measurement": "concentration at which yolk sac retention was observed", "setting": "Danio rerio embryos", "value": 6.25, "unit": "µg/mL"}, {"measurement": "pH range of activity", "setting": "[4]", "value": "shows activity in a wide pH range"}, {"measurement": "salt tolerance", "setting": "[4]", "value": "salt-tolerable"}, {"measurement": "sensitivity to gut peptidases", "setting": "gut peptidases", "value": "sensitive to gut peptidases"}]}, {"sequence": "MWGRILGTVAKYGTKAVSWAWQHKWELINMGDLAFRYIQRIWG [Peptide P14T]", "values": [{"measurement": "zones of inhibition, spot-on-the-lawn assay", "setting": "S. aureus ATCC 25923 [1]", "value": "retained partial activity with a mild decrease in zone diameter compared to LBU"}, {"measurement": "MIC", "setting": "S. aureus ATCC 25923 [2]", "value": 25, "unit": "mg/L"}, {"measurement": "MBC", "setting": "S. aureus ATCC 25923 [3]", "value": ">50", "unit": "mg/L"}]}, {"sequence": "MWGRILGTVAKYGPKAVSWAWQAKWELINMGDLAFRYIQRIWG [Peptide H23A]", "values": [{"measurement": "zones of inhibition, spot-on-the-lawn assay", "setting": "S. aureus ATCC 25923 [1]", "value": "complete loss of antimicrobial activity"}, {"measurement": "MIC", "setting": "S. aureus ATCC 25923 [2]", "value": ">50", "unit": "mg/L"}, {"measurement": "MBC", "setting": "S. aureus ATCC 25923 [3]", "value": ">50", "unit": "mg/L"}]}]}
